Entries after “also recorded” stand apart in the source; their conditions may differ.
What was measured:
[1] = tested on: Hepa 1-6 (mouse hepatoma) cells; test: In vitro cellular uptake by fluorescence microscopy, Hepa 1-6; type: cell-based; details: 0.150 μmol in 220 μl via mixing chamber, 30 sec exposure
Procedure: In Vitro cellular uptake of PI, RRH-PI compounds, and IV evaluated by fluorescence measurements. PI and the RRH-prodrugs were tested for cellular uptake on several cell lines which included B16 (murine melanoma), Hepa 1-6 (mouse hepatoma), SK-OV-3 (also SKOV-3, human ovarian carcinoma), OVCAR-3 (human ovarian carcinoma), Jurkat (human T-lymphocyte), 293 (human embryonic kidney), and MC38 (mouse colon carcinoma) cells. Adherent cells were plated at 2.5×10^5 cells/well on 6-well plates 24 h prior to testing. The growth media was removed from individual wells and the drug/prodrug was immediately added to the well with the mixing chamber. Final drug/prodrug concentrations were 0.150 μmol in 220 μl total volume (20 μl OS, 200 μl ITG). After 30 sec the drug solution was removed (aspirated) and 2 ml complete media was added to the cells. Experiments conducted with prodrug that was hydrolyzed prior to application to the cells followed a similar protocol, however the combined solution obtained after passing through the mixing chamber was collected and allowed to sit at ambient temperature for 5 min prior to application on the cells. […] SYTOX Green (20 μl of 5 μM solution in 20 mM Hepes, pH 7.4) was added to the wells and the cells were examined. Each condition was repeated in 2 or 3 wells, and the cells were immediately examined by microscopy. Fluorescent microscopy studies were conducted with a three laser LSM 510 confocal microscope, an Axiovert S100 fluorescent microscope, or an Axioplan2 fluorescent microscope (all Zeiss) equipped with filter sets for the rhodamine fluorescence channel (λex=BP 450/12, λem=LP 590 nm filter set) and the fluorescein fluorescent channel (λex=BP 546/90, λem=LP 515 nm filter set). Imaging was performed with an AxioCam digital camera (Zeiss), with AxioVision imaging software (V 4.5, Zeiss). For all images, identical camera settings and exposure times were used on comparative sample and control images. Images were processed with Photoshop (Adobe) for level and brightness using identical settings between sample and control images.

[2] = tested on: SK-OV-3 (human ovarian carcinoma) cells; test: In vitro cellular uptake by fluorescence microscopy, SK-OV-3; type: cell-based; details: for PI positive cells: 0.150 μmol in 220 μl via mixing chamber, 30 sec exposure; for PI positive cells, prodrug premixed with ITG: premixed with ITG (5 min) before application to the cells
Procedure: In Vitro cellular uptake of PI, RRH-PI compounds, and IV evaluated by fluorescence measurements. […] Adherent cells were plated at 2.5×10^5 cells/well on 6-well plates 24 h prior to testing. The growth media was removed from individual wells and the drug/prodrug was immediately added to the well with the mixing chamber. […] After 30 sec the drug solution was removed (aspirated) and 2 ml complete media was added to the cells. Experiments conducted with prodrug that was hydrolyzed prior to application to the cells followed a similar protocol, however the combined solution obtained after passing through the mixing chamber was collected and allowed to sit at ambient temperature for 5 min prior to application on the cells. Experiments conducted with Calcein AM (Invitrogen, 100 μl of 20 μM solution in complete media) followed a similar protocol for drug treatment (4 min treatment). Experiments conducted with SYTOX Green (Invitrogen) followed a similar protocol for drug treatment. […] Each condition was repeated in 2 or 3 wells, and the cells were immediately examined by microscopy. Fluorescent microscopy studies were conducted with a three laser LSM 510 confocal microscope, an Axiovert S100 fluorescent microscope, or an Axioplan2 fluorescent microscope (all Zeiss) equipped with filter sets for the rhodamine fluorescence channel (λex=BP 450/12, λem=LP 590 nm filter set) and the fluorescein fluorescent channel (λex=BP 546/90, λem=LP 515 nm filter set). Imaging was performed with an AxioCam digital camera (Zeiss), with AxioVision imaging software (V 4.5, Zeiss). For all images, identical camera settings and exposure times were used on comparative sample and control images. Images were processed with Photoshop (Adobe) for level and brightness using identical settings between sample and control images. For experiments conducted with IV, the cells were plated on 6-well plates with cover slips. […] Imaging was conducted on an Axioplan2 fluorescent microscope (Zeiss) and the same fields were imaged with phase contrast illumination, in the rhodamine fluorescence channel (λex=BP 450/12, λem=LP 590 nm filter set), and in the fluorescein fluorescent channel (λex=BP 546/90, λem=LP 515 nm filter set). IV was also mixed with PI and then delivered to SK-OV-3 cells, and the cells were imaged as before. In one protocol, equal amounts of IV (15.0 mM in DMSO) and PI (15.0 mM in DMSO) were combined and the resulting solution was added to cells via the mixing chamber. In a second method, PI was taken up in the ITG solution (0.748 mM) and mixed with IV (7.48 mM in DMSO) in the mixing chamber. […] The cells were imaged as before following 30 sec-4 min exposure to the drug solution.

[3] = tested on: cells exposed to the peritoneal cavity; test: IP application to normal mice, confocal microscopy; type: in vivo, mouse; details: 10-60 min
Procedure: For evaluation of prodrug delivery to exposed tissues in the peritoneum, we tested IP application of propidium iodide, BDMSODS-PI, and C12PMMA-PI to both normal mice and in a mouse model of disseminated peritoneal ovarian cancer. All procedures were executed under Isoflurane inhalation anesthesia. In normal mice either the abdominal cavity was opened and the drug mixture was directly applied on abdominal organs (220 μL of drug-OS/ITG over 30 sec), or the drug mixture was injected through the abdominal wall (1 mL of drug-OS/ITG over 1 min). For both delivery protocols, the dual pump mixing chamber was used. After 10-60 min, the animals were euthanized and tissues were harvested, frozen, sectioned, stained with ToPro-3 and Phalloidin Alexa 488, and examined by laser confocal microscopy.

[4] = tested on: MC38 liver metastases; test: Liver arterial bolus injection (LABI) in mice with MC38 liver metastases; type: in vivo, C57BL mice; details: for PI staining of MC38 liver metastases: hepatic artery (LABI) delivery
Procedure: All surgical procedures were performed under Isoflurane anesthesia. Liver tumors models were established in C57BL mice using MC38 (colon carcinoma) and Hepa 1-6 (hepatoma), in BALB/c mice using B16 (melanoma), and in A/J mice using NXS2 (neuroblastoma) cell lines. Mice were inoculated via the portal vein with 1×10^4 MC38 cells or 0.5-1.25×10^6 Hepa 1-6 cells, or via the tail vein with 0.5-1.25×10^6 B16 or NXS2 cells. Tumor formation was allowed to progress for 2-3 weeks with periodic examination for tumor growth prior to drug/prodrug treatment.
The right gastro-duodenal artery was freed from surrounding tissue and the common hepatic artery was clamped occluding blood flow. The distal part of the right gastroduodenal artery was sutured, a 35 G needle was inserted into the gastroduodenal artery, and secured during the single bolus injection. Following the injection, the needle was retracted and the proximal part of gastroduodenal artery was sutured, and hepatic artery flow was restored. Alternatively, the celiac trunk was clamped close to the aorta and a 35 G needle was inserted above the clamp. The left gastric, splenic, and gastro-duodenal arteries were clamped in order to direct all of the drug solution to the liver. This latter approach was advantageous in the C57BL mouse model because of anatomical variations involving the hepatic artery.
LABI delivery of drug/prodrug (0.150 μmol, 220 μl total injection volume) and controls were performed using the mixing chamber and syringe pumps as previously described. For fluorescent microscopy analysis, the livers were harvested 5 min after LABI, snap frozen in O.C.T. compound, sectioned, stained (for confocal, green—actin (Alexa 488), blue—nuclei (ToPro-3)), and analyzed by fluorescent (Axioplan2) fluorescent microscope (Zeiss) in the rhodamine fluorescence channel (λex=BP 450/12, λem=LP 590 nm filter set) or in the fluorescein fluorescent channel (λex=BP 546/90, λem=LP 515 nm filter set) due to signal intensity) and confocal microscopy (Axioplan 2, Zeiss). For experiments designed to determine the number of PI positive cells, five random fields containing liver tumors and five random fields containing portal triads void of tumor were imaged. The number of cells and positive cells were counted to determine the percentage of positive cells in the corresponding regions.

[5] = tested on: rapidly dividing hepatocytes; test: Mitosis of hepatocytes after 70% partial hepatectomy and portal vein delivery; type: in vivo, ICR mice; details: 2 days after treatment, 0.150 μmol intraportal
Procedure: Delivery of RRH-PI to rapidly dividing cells results in a decrease in the number of cells in mitosis. […] Following the hepatectomy, PI or III (0.150 μmol, 220 μl total injection volume) were delivered to the liver via the portal vein using the mixing chamber. The abdominal cavity was closed in two layers with 4-0 Braunamid suture. After 48 h, the animals were sacrificed, the livers were harvested, formalin fixed, paraffin imbedded, sectioned, and H&E stained. […] Results are reported as the percentage of cells in metaphase (±standard deviation).

[6] = tested on: various tissues of normal mice; test: Propidium iodide delivery to a variety of target cells by injection or topical administration; type: in vivo, mouse
Procedure: Propidium iodide delivery to a variety of target cells. […] All biliary and gall bladder arteries, as well as bladder epithelium also stained (FIG. 14B). […] During injection time the common carotid artery was temporary occluded. After injection the blood flow was restored and animals sacrificed 5 min later. […] After three weeks, mice were injected with modified PI. […] Injection was performed using similar 35 G needle into right ureter close to the bladder. […] Clamps were then released and 5 min later animals were sacrificed. The intestine lumen was flushed with 1 ml of ITG and analyzed as described above.

[7] = tested on: SK-OV-3 peritoneal tumors; test: Direct application / IP injection in mouse model of disseminated peritoneal ovarian cancer; type: in vivo, nude mice; details: two weeks after SK-OV-3 inoculation, direct application or IP injection
Procedure: BDMODS-PI and C12PMMA-PI show enhanced drug uptake by surface tissue and microtumors following IP and intraperitoneal perfusion chemotherapy (IPPC) application in a mouse tumor model. For establishment of the cancer model, 2×10^6 SK-OV-3 cells were injected IP into nude mice. The mice were examined at two weeks following cell inoculation, or at the first manifestation of ascites (about 4-5 wks). Tissue samples were fixed in 10% NBF, routinely processed, stained with H&E stain, and subjected to histopathological analysis. […] At 4-5 weeks after SK-OV-3 cell inoculation, maximum tumor size increased to 5-7 mm with the bulk of cancer development present as about 0.1 to about 1 mm microtumors (FIG. 9). At 5 wks most peritoneal surfaces were affected by growing cancer cells, coating both the visceral and parietal peritoneum, e.g. liver, pancreas, and diaphragm. […]
Two weeks following cell inoculation, the abdominal cavity was opened and the drug mixture was directly applied on the duodenum and ovary/uterus/fallopian tubes (220 μL of drug-OS/ITG over 30 sec). […] Cellular uptake of the prodrug was stronger at the surface of the metastases, but also readily detectable in the middle of the small tumors (tumor size about 0.5 to about 1 mm; FIG. 7-8). […]

[8] = intestinal intra lumen application, 100 μg

SMILES | staining of cells (PI positive) [1] | PI positive cells [2] | nuclear labeling of peritoneal tissues [3] | PI staining of MC38 liver metastases [4] | hepatocytes in metaphase [5] [%] | nuclear staining [6, 8] | labeling of peritoneal tumors [7] | also measured
CC[N+](C)(CC)CCC[n+]1c(-c2ccccc2)c2cc(N)ccc2c2ccc(N)cc21.[I-].[I-] [PI, Propidium iodide, reference compound] | stained very few cells | small percentage of PI positive cells | extremely rare nuclear labeling | greatly decreased number of PI positive cells within the MC38 metastases | 7.0 | PI staining was observed in a few intestinal villi cells | – | PI positive cells ([2]; listed as propidium iodide): stained very few cells; PI staining of MC38 liver metastases ([4]; listed as unmodified PI): Few MC38 metastases labeled; nuclear staining ([6]; injection into any vessel or bile duct of normal liver): little to no nuclear staining
CCCCCCCCCCCCNC(=O)CCC(=CCC(=O)O)C(=O)Nc1ccc2c(c1)c(-c1ccccc1)[n+](CCC[N+](C)(CC)CC)c1cc(NC(=O)C(=CCC(=O)O)CCC(=O)NCCCCCCCCCCCC)ccc21.[I-].[I-] [III, 3,8-bis-[2-(2 carboxyethylidene)-4-(dodecarbamoyl)-1-oxo-butylamine] 5-(3,3-diethyl-3-methylammoniumpropyl) 6-phenyl phenanthridinium diiodide] | paralleled the results obtained with II | paralleled the results obtained with II | near-exclusive PI^+-staining of cells exposed to the peritoneal cavity | paralleled the results detailed with II | 2.3 | – | intensely labeled | –
CCCCCCCCCCCCCCCCCC[Si](C)(C)Nc1ccc2c(c1)c(-c1ccccc1)[n+](CCC[N+](C)(CC)CC)c1cc(N[Si](C)(C)CCCCCCCCCCCCCCCCCC)ccc21.[I-].[I-] [II, 3,8-bis[((dimethyl)octadecylsilazyl)amine] 5-(3,3-diethyl-3-methylammoniumpropyl) 6-phenyl phenanthridinium diiodide] | strong nuclear staining in all of the cells | nearly all of the cells being PI positive | near-exclusive PI^+-staining of cells exposed to the peritoneal cavity | strong nuclear staining of the metastases | – | strong labeling of all enterocyte nuclei | intensely labeled | PI positive cells, prodrug premixed with ITG [2]: very few PI positive cells; PI positive cells, prodrug premixed with ITG ([2]; listed as BDMODS-PI): did not show PI positive staining; cells PI positive in liver parenchyma region ([4]; LABI, confocal counting): 1%; cells PI positive in portal vein region ([4]; LABI, confocal counting): 23%; cells PI positive in MC38 metastases ([4]; LABI, confocal counting, average of five images): 94%; PI positive cells in other organs (heart, lung, spleen, and kidneys) ([4]; after LABI): No PI positive cells were observed in any other organ examined; total number of PI positive non tumor cells in the liver ([4]; estimated from region counts): 2-3%; PI staining of MC38 liver metastases ([4]; listed as BDMODS-PI): intense, near-exclusive PI-staining of MC38 liver metastases; also recorded: strongly labeled with PI; also recorded: nearly all cells labeled; nuclear staining ([6]; injection into bile duct of normal mouse liver): strong nuclear staining of all bile duct epithelial cells; nuclear staining ([6]; injection into emptied bladder): strong staining of bladder transitional epithelium; nuclear staining ([6]; injection into hepatic artery of normal mouse liver): strong nuclear staining of hepatic artery endothelial and smooth-muscle cells; nuclear staining ([6]; injection into right carotid artery): strong staining of brain endothelial cells; nuclear staining ([6]; injection into the ureter): strong staining of ureter transitional epithelium nuclei; nuclear staining ([6]; injection into unclamped portal vein with preserved blood flow): strong nuclear staining of portal vein cells only; nuclear staining ([6]; portal vein clamped during injection): propidium iodide staining was observed in a majority of hepatocytes

From US20090074885A1, “Reversible Hydrophobic Modification of Drugs for Improved Delivery to Cells” (Roche Madison Inc., priority 2003, published 2009)
